Results reported in ChEMBL document CHEMBL3046429, “Synthesis, molecular modeling study, preliminary antibacterial, and antitumor evaluation of N-substituted naphthalimides and their structural analogues” (2013).
Converted amounts (≈) assume the structure as drawn.

Assays:
Type in all cases: functional
[1] = test system: Escherichia coli; assay: Antibacterial activity against Escherichia coli assessed as growth inhibition after 24 hr by two-fold serial dilution method
[2] = test system: DU-145; assay: Growth inhibition of Homo sapiens (human) DU145 cells at 10 uM after 48 hr by coulter counter analysis; conditions: DU-145, 48 h, read-out: GI
[3] = test system: Malme-3M; assay: Growth inhibition of Homo sapiens (human) MALME-3M cells at 10 uM after 48 hr by coulter counter analysis; conditions: read-out: GI
[4] = test system: MDA-MB-231; assay: Growth inhibition of Homo sapiens (human) MDA-MB-231/ATCC cells at 10 uM after 48 hr by coulter counter analysis; conditions: MDA-MB-231, 48 h, read-out: GI
[5] = test system: U-251; assay: Growth inhibition of Homo sapiens (human) U251 cells at 10 uM after 48 hr by coulter counter analysis; conditions: U-251, 48 h, read-out: GI
[6] = test system: SF-539; assay: Growth inhibition of Homo sapiens (human) SF539 cells at 10 uM after 48 hr by coulter counter analysis; conditions: SF-539, 48 h, read-out: GI
[7] = test system: NCI-H226; assay: Growth inhibition of Homo sapiens (human) NCI-H226 cells at 10 uM after 48 hr by coulter counter analysis; conditions: NCI-H226, 48 h, read-out: GI
[8] = test system: K562; assay: Growth inhibition of Homo sapiens (human) K562 cells at 10 uM after 48 hr by coulter counter analysis; conditions: K562, 48 h, read-out: GI
[9] = test system: NCI-H522; assay: Growth inhibition of Homo sapiens (human) NCI-H522 cells at 10 uM after 48 hr by coulter counter analysis; conditions: NCI-H522, 48 h, read-out: GI
[10] = test system: OVCAR-3; assay: Growth inhibition of Homo sapiens (human) OVCAR3 cells at 10 uM after 48 hr by coulter counter analysis; conditions: OVCAR-3, 48 h, read-out: GI
[11] = test system: MOLT-4; assay: Growth inhibition of Homo sapiens (human) MOLT4 cells at 10 uM after 48 hr by coulter counter analysis; conditions: MOLT-4, 48 h, read-out: GI
[12] = test system: BT-549; assay: Growth inhibition of Homo sapiens (human) BT549 cells at 10 uM after 48 hr by coulter counter analysis; conditions: BT-549, 48 h, read-out: GI
[13] = test system: CAKI-1; assay: Growth inhibition of Homo sapiens (human) CAKI-1 cells at 10 uM after 48 hr by coulter counter analysis; conditions: CAKI-1, 48 h, read-out: GI
[14] = test system: SW-620; assay: Growth inhibition of Homo sapiens (human) SW620 cells at 10 uM after 48 hr by coulter counter analysis; conditions: SW-620, 48 h, read-out: GI
[15] = test system: CCRF-CEM; assay: Growth inhibition of Homo sapiens (human) CCRF-CEM cells at 10 uM after 48 hr by coulter counter analysis; conditions: read-out: GI
[16] = test system: SF-268; assay: Growth inhibition of Homo sapiens (human) SF268 cells at 10 uM after 48 hr by coulter counter analysis; conditions: SF-268, 48 h, read-out: GI
[17] = test system: SK-OV-3; assay: Growth inhibition of Homo sapiens (human) SKOV3 cells at 10 uM after 48 hr by coulter counter analysis; conditions: SK-OV-3, 48 h, read-out: GI
[18] = test system: SK-MEL-28; assay: Growth inhibition of Homo sapiens (human) SK-MEL-28 cells at 10 uM after 48 hr by coulter counter analysis; conditions: SK-MEL-28, 48 h, read-out: GI
[19] = test system: 786-0; assay: Growth inhibition of Homo sapiens (human) 786-0 cells at 10 uM after 48 hr by coulter counter analysis; conditions: 786-0, 48 h, read-out: GI
[20] = test system: T47D; assay: Growth inhibition of Homo sapiens (human) T47D cells at 10 uM after 48 hr by coulter counter analysis; conditions: read-out: GI
[21] = test system: NCI-H460; assay: Growth inhibition of Homo sapiens (human) NCI-H460 cells at 10 uM after 48 hr by coulter counter analysis; conditions: NCI-H460, 48 h, read-out: GI
[22] = test system: RPMI-8226; assay: Growth inhibition of Homo sapiens (human) RPMI8226 cells at 10 uM after 48 hr by coulter counter analysis; conditions: RPMI-8226, 48 h, read-out: GI
[23] = test system: ACHN; assay: Growth inhibition of Homo sapiens (human) ACHN cells at 10 uM after 48 hr by coulter counter analysis; conditions: read-out: GI
[24] = test system: SN12C; assay: Growth inhibition of Homo sapiens (human) SN12C cells at 10 uM after 48 hr by coulter counter analysis; conditions: read-out: GI
[25] = test system: OVCAR-8; assay: Growth inhibition of Homo sapiens (human) OVCAR8 cells at 10 uM after 48 hr by coulter counter analysis; conditions: OVCAR-8, 48 h, read-out: GI
[26] = test system: COLO 205; assay: Growth inhibition of Homo sapiens (human) COLO205 cells at 10 uM after 48 hr by coulter counter analysis; conditions: COLO 205, 48 h, read-out: GI
[27] = test system: RXF 393; assay: Growth inhibition of Homo sapiens (human) RXF393 cells at 10 uM after 48 hr by coulter counter analysis; conditions: RXF 393, 48 h, read-out: GI
[28] = test system: IGROV-1; assay: Growth inhibition of Homo sapiens (human) IGROV1 cells at 10 uM after 48 hr by coulter counter analysis; conditions: IGROV-1, 48 h, read-out: GI
[29] = test system: HCC 2998; assay: Growth inhibition of Homo sapiens (human) HCC2998 cells at 10 uM after 48 hr by coulter counter analysis; conditions: HCC 2998, 48 h, read-out: GI
[30] = test system: Hs-578T; assay: Growth inhibition of Homo sapiens (human) Hs 578T cells at 10 uM after 48 hr by coulter counter analysis; conditions: read-out: GI
[31] = test system: HT-29; assay: Growth inhibition of Homo sapiens (human) HT-29 cells at 10 uM after 48 hr by coulter counter analysis; conditions: HT-29, 48 h, read-out: GI
[32] = test system: PC-3; assay: Growth inhibition of Homo sapiens (human) PC3 cells at 10 uM after 48 hr by coulter counter analysis; conditions: PC-3, 48 h, read-out: GI
[33] = test system: Bacillus subtilis; assay: Antibacterial activity against Bacillus subtilis assessed as growth inhibition after 24 hr by two fold serial dilution method
[34] = test system: SNB-75; assay: Growth inhibition of Homo sapiens (human) SNB75 cells at 10 uM after 48 hr by coulter counter analysis; conditions: SNB-75, 48 h, read-out: GI
[35] = test system: UACC-62; assay: Growth inhibition of Homo sapiens (human) UACC62 cells at 10 uM after 48 hr by coulter counter analysis; conditions: UACC-62, 48 h, read-out: GI
[36] = test system: Pseudomonas aeruginosa; assay: Antibacterial activity against Pseudomonas aeruginosa assessed as growth inhibition after 24 hr by two-fold serial dilution method
[37] = test system: HCT-15; assay: Growth inhibition of Homo sapiens (human) HCT15 cells at 10 uM after 48 hr by coulter counter analysis; conditions: HCT-15, 48 h, read-out: GI

O=C1c2nccnc2C(=O)N1c1c(Cl)cc(Cl)cc1Cl was tested, and the “-logMIC” value [1] was 4.68, the MIC ([1]; Escherichia coli, 24 h) was 6.9 µg/mL (≈ 21 µM) and the inhibition of growth at 10 µM [2] was 18.6%. It also gave an inhibition of growth at 10 µM [3] of 21.1%, an inhibition of growth at 10 µM [4] of 7.23% and an inhibition of growth at 10 µM [5] of -7.03%. The inhibition of growth at 10 µM [6] was 8.66%, the inhibition of growth at 10 µM [7] was 9.41% and the inhibition of growth at 10 µM [8] was 10.1%. The inhibition of growth at 10 µM [9] was 14.9%, the inhibition of growth at 10 µM [10] was -15.4% and the inhibition of growth at 10 µM [11] was 1.21%. The inhibition of growth at 10 µM [12] was 4.48%, the inhibition of growth at 10 µM [13] was 18% and the inhibition of growth at 10 µM [14] was -7.54%. For the same compound, the inhibition of growth at 10 µM [15] was 3.38%, the inhibition of growth at 10 µM [16] was 7.64% and the inhibition of growth at 10 µM [17] was 4.55%. The inhibition of growth at 10 µM [18] was -3.36%, the inhibition of growth at 10 µM [19] was 2.39% and the inhibition of growth at 10 µM [20] was 5.37%. The inhibition of growth at 10 µM [21] was -7.91%, the inhibition of growth at 10 µM [22] was 4.32% and the inhibition of growth at 10 µM [23] was -0.27%. For the same compound, the inhibition of growth at 10 µM [24] was 22.7%, the inhibition of growth at 10 µM [25] was 11% and the inhibition of growth at 10 µM [26] was 8.27%. For the same compound, the inhibition of growth at 10 µM [27] was -25.2%, the inhibition of growth at 10 µM [28] was 7.24% and the inhibition of growth at 10 µM [29] was -4.24%. It also gave an inhibition of growth at 10 µM [30] of 15.3%, an inhibition of growth at 10 µM [31] of 4.24% and an inhibition of growth at 10 µM [32] of 22.7%. It also gave an MIC [33] of 20 µg/mL (≈ 60.9 µM), an inhibition of growth at 10 µM [34] of 47.4% and an inhibition of growth at 10 µM [35] of 1.42%. For the same compound, the MIC [36] was 20 µg/mL (≈ 60.9 µM) and the inhibition of growth at 10 µM [37] was 7.09%.
